Source: US11407715B2, “Substituted indoline derivatives as dengue viral replication inhibitors” (JANSSEN PHARMACEUTICALS, INC., priority 2017, dated 2022)

What was measured:
[1] = test system: DENV-2 16681 strain; experiment: microbe, parasite or virus in culture; type: cell-based, Dengue virus; conditions: for EC50: DENV-2 16681 eGFP, Vero cells, MOI 0.5, 3 days; for SI: SI=CC50/EC50, DENV-2 antiviral assay
[2] = test system: DENV-1 strain TC974#666; experiment: Tetravalent RT-qPCR assay, serotype 1; type: cell-based, Dengue virus; conditions: RT-qPCR serotype 1 TC974#666, Vero cells
Protocol: (§1) The antiviral activity of the compounds of the invention was tested against DENV-1 strain TC974#666 (NCPV), DENV-2 strain 16681, DENV-3 strain H87 (NCPV) and DENV-4 strain H241 (NCPV) in a RT-qPCR assay. Therefore, Vero cells were infected with either DENV-1, or -2, or -3, or -4 in the presence or absence of test compounds. At day 3 post-infection, the cells were lysed and cell lysates were used to prepare cDNA of both a viral target (the 3′UTR of DENV; Table 2) and a cellular reference gene (β-actin, Table 2). Subsequently, a duplex real time PCR was performed on a Lightcycler480 instrument. The generated Cp value is inversely proportional to the amount of RNA expression of these targets. Inhibition of DENV replication by a test compound results in a shift of Cp's for the 3′UTR gene. On the other hand, if a test compound is toxic to the cells, a similar effect on β-actin expression will be observed. The comparative ΔΔCp method is used to calculate ECs50, which is based on the relative gene expression of the target gene (3′UTR) normalized with the cellular housekeeping gene (β-actin). In addition, CC50 values are determined based on the Cp values acquired for the housekeeping gene β-actin.
(§2) The culture medium consisted of minimal essential medium supplemented with 2% of heat-inactivated fetal calf serum, 0.04% gentamycin (50 mg/mL) and 2 mM of L-glutamine. Vero cells, obtained from ECACC, were suspended in culture medium and 75 μL/well was added in 96-well plates (10000 cells/well), which already contain the antiviral compounds. […] In addition, each plate contains wells which are assigned as virus controls (containing cells and virus in the absence of compound) and cell controls (containing cells in the absence of virus and compound). Once the cells were added in the plates, the plates were incubated in a fully humidified incubator (37° C., 5% CO2) until the next day. Dengue viruses serotype-1, 2, 3 and 4 were diluted in order to obtain a Cp of ˜22-24 in the assay. Therefore, 25 μL of virus suspension was added to all the wells containing test compound and to the wells assigned as virus control. In parallel, 25 μL of culture medium was added to the cell controls. Next, the plates were incubated for 3 days in a fully humidified incubator (37° C., 5% CO2). After 3 days, the supernatant was removed from the wells and the cells were washed twice with ice-cold PBS (˜100 μL). The cell pellets within the 96-well plates were stored at −80° C. for at least 1 day. Next, RNA was extracted using the Cells-to-CT™ lysis kit, according to the manufacturer's guideline (Life Technologies). The cell lysates can be stored at −80C or immediately used in the reverse transcription step.
(§3) In preparation of the reverse transcription step, mix A (table 3A) was prepared and 7.57 μL/well was dispensed in a 96-well plate. After addition of 5 μL of the cell lysates, a five minute denaturation step at 75° C. was performed (table 3B). Afterwards, 7.43 μL of mix B was added (table 3C) and the reverse transcription step was initiated (table 3D) to generate cDNA.
(§4) Finally, a RT-qPCR mix was prepared, mix C (table 4A), and 22.02 μL/well was dispensed in 96-well LightCycler qPCR plates to which 3 μL of cDNA was added and the qPCR was performed according to the conditions in table 4B on a LightCycler 480.
(§5) Using the LightCycler software and an in-house LIMS system, dose response curves for each compound were calculated and the half maximal effective concentration (EC50) and the half maximal cytotoxic concentration (CC50) were determined (Tables 5-8).

[3] = test system: DENV-2 strain 16681; experiment: Tetravalent RT-qPCR assay, serotype 2; type: cell-based, Dengue virus; conditions: RT-qPCR serotype 2 16681, Vero cells
Protocol: as §1, §2, §3, §4, §5

[4] = test system: DENV-3 strain H87; experiment: Tetravalent RT-qPCR assay, serotype 3; type: cell-based, Dengue virus; conditions: RT-qPCR serotype 3 H87, Vero cells
Protocol: as §1, §2, §3, §4, §5

[5] = test system: DENV-4 strain H241; experiment: Tetravalent RT-qPCR assay, serotype 4; type: cell-based, Dengue virus; conditions: RT-qPCR serotype 4 H241, Vero cells
Protocol: as §1, §2, §3, §4, §5

[6] = test system: Vero cells; conditions: African green monkey

Compound	EC50 [1]	SI [1]	EC50 [2]	EC50 [3]	EC50 [4]	EC50 [5]	CC50 [6]	EC50 ([2]; Dengue virus, DENV1, Vero)	EC50 ([3]; Dengue virus, DENV2, Vero)	EC50 ([4]; Dengue virus, DENV3, Vero)	EC50 ([5]; Dengue virus, DENV4, Vero)
COc1cc(NC(C(=O)N2CCc3ccc(OC(F)(F)F)cc32)c2ccc(Cl)cc2)cc(OCCC(C)C(=O)O)c1 (single isomer, unassigned) [Compound 1D]	0.23 nM	57700	0.27 nM	0.23 nM	3.4 nM	24 nM	12000 nM	–	–	–	–
COc1cc(NC(C(=O)N2CCc3ccc(OC(F)(F)F)cc32)c2ccc(Cl)cc2)cc(OCC(C)CC(=O)O)c1 (single isomer, unassigned) [Compound 4D]	0.17 nM	81200	0.23 nM	0.13 nM	2.3 nM	26 nM	13000 nM	–	–	–	–
COc1cc(NC(C(=O)N2CCc3ccc(OC(F)(F)F)cc32)c2ccc(Cl)cc2)cc(OC23CC(C(=O)O)(C2)C3)c1 (single isomer, unassigned) [Compound 9B]	0.39 nM	32500	–	–	–	–	12000 nM	0.81 nM	0.5 nM	8 nM	36 nM
COc1cc(NC(C(=O)N2CCc3ccc(OC(F)(F)F)cc32)c2ccc(Cl)cc2)cc(OCCC(=O)O)c1 (single isomer, unassigned) [Compound 12B]	0.69 nM	21500	–	–	–	–	14000 nM	0.47 nM	0.53 nM	4.7 nM	39 nM
COc1cc(CCCC(=O)O)cc(NC(C(=O)N2CCc3ccc(OC(F)(F)F)cc32)c2ccc(Cl)cc2)c1 (single isomer, unassigned) [Compound 15B]	0.45 nM	24900	–	–	–	–	12000 nM	0.24 nM	0.23 nM	2.8 nM	35 nM
COc1cc(NC(C(=O)N2CCc3ccc(OC(F)(F)F)cc32)c2ccc(Cl)cc2OC)cc(OCCC(C)C(=O)O)c1 (single isomer, unassigned) [Compound 17C]	0.23 nM	39300	–	–	–	–	12000 nM	0.19 nM	0.11 nM	3.6 nM	16 nM
COc1cc(NC(C(=O)N2CCc3ccc(OC(F)(F)F)cc32)c2ccc(Cl)cc2OC)cc(OCCC(C)C(=O)O)c1 (single isomer, unassigned) [Compound 17D]	0.12 nM	>9720	0.21 nM	0.1 nM	2.7 nM	15 nM	14000 nM	–	–	–	–
COc1cc(NC(C(=O)N2CCc3ccc(OC(F)(F)F)cc32)c2ccc(Cl)cc2OC)cc(OCCC(C)(C)C(=O)O)c1 (single isomer, unassigned) [Compound 18B]	0.28 nM	62700	–	–	–	–	12000 nM	0.55 nM	0.34 nM	4.3 nM	33 nM
COc1cc(NC(C(=O)N2CCc3cc(OC)c(C(F)(F)F)cc32)c2ccc(Cl)cc2)cc(OCCC(C)(C)C(=O)O)c1 (single isomer, unassigned) [Compound 21B]	0.32 nM	45200	–	–	–	–	12000 nM	1 nM	0.16 nM	6.5 nM	48 nM
COc1cc(NC(C(=O)N2CCc3cc(F)c(OC(F)(F)F)cc32)c2ccc(Cl)cc2)cc(OC2CC(C(=O)O)C2)c1 (single isomer, unassigned) [Compound 27B]	0.022 nM	>205482	–	–	–	–	13000 nM	0.013 nM	0.014 nM	0.091 nM	0.81 nM
COc1cc(NC(C(=O)N2CCc3cc(OC)c(Cl)cc32)c2ccc(Cl)cc2)cc(OC2CC(C(=O)O)C2)c1 (single isomer, unassigned) [Compound 32B]	0.081 nM	>230623	–	–	–	–	14000 nM	0.11 nM	0.033 nM	0.57 nM	10 nM
COc1cc(NC2CC(C(=O)O)C2)cc(NC(C(=O)N2CCc3ccc(OC(F)(F)F)cc32)c2ccc(Cl)cc2)c1 (single isomer, unassigned) [Compound 33C]	3.2 nM	5930	0.97 nM	–	11 nM	340 nM	19000 nM	–	1 nM	–	–
COc1cc(NC2CC(C(=O)O)C2)cc(NC(C(=O)N2CCc3ccc(OC(F)(F)F)cc32)c2ccc(Cl)cc2)c1 (single isomer, unassigned) [Compound 33D]	0.52 nM	39000	0.48 nM	0.66 nM	2.3 nM	22 nM	18000 nM	–	–	–	–
COc1cc(NC(C(=O)N2CCc3ccc(OC(F)(F)F)cc32)c2ccc(Cl)cc2)cc(OCC2CC2C(=O)O)c1 (stereo not drawn) [Compound 6AB]	0.016 nM	>199223	0.022 nM	0.017 nM	0.13 nM	2.9 nM	12000 nM	–	–	–	–
COc1cc(NC(C(=O)N2CCc3ccc(OC(F)(F)F)cc32)c2ccc(Cl)cc2)cc(OCC2CC2C(=O)O)c1 (stereo not drawn) [Compound 6BB]	0.18 nM	83800	0.13 nM	0.12 nM	1.6 nM	20 nM	12000 nM	–	–	–	–
COc1cc(NC(C(=O)N2CCc3ccc(OC(F)(F)F)cc32)c2ccc(Cl)cc2)cc(OC2CC(C(=O)O)C2)c1 (stereo not drawn) [Compound 7B]	0.12 nM	121027	0.15 nM	0.12 nM	1.8 nM	13 nM	13000 nM	–	–	–	–
COc1cc(NC(C(=O)N2CCc3ccc(OC(F)(F)F)cc32)c2ccc(Cl)cc2)cc(OC2CC(C(=O)O)C2)c1 (stereo not drawn) [Compound 8B]	0.023 nM	>102836	0.032 nM	0.025 nM	0.16 nM	1.3 nM	14000 nM	–	–	–	–
COc1cc(NC(C(=O)N2CCc3ccc(OC(F)(F)F)cc32)c2ccc(Cl)cc2)cc(OCC2CC(C(=O)O)C2)c1 (stereo not drawn) [Compound 10B]	0.11 nM	109987	–	–	–	–	11000 nM	0.27 nM	0.11 nM	2.9 nM	22 nM
COc1cc(NC(C(=O)N2CCc3ccc(OC(F)(F)F)cc32)c2ccc(Cl)cc2)cc(OCC2CC(C(=O)O)C2)c1 (stereo not drawn) [Compound 11B]	0.11 nM	118692	0.2 nM	0.1 nM	1.8 nM	17 nM	11000 nM	–	–	–	–
COc1cc(NC(C(=O)N2CCc3ccc(OC(F)(F)F)cc32)c2ccc(Cl)cc2OC)cc(OCC2CC2C(=O)O)c1 (stereo not drawn) [Compound 19AB]	0.012 nM	>390600	0.021 nM	0.014 nM	0.14 nM	0.69 nM	12000 nM	–	–	–	–
COc1cc(NC(C(=O)N2CCc3ccc(OC(F)(F)F)cc32)c2ccc(Cl)cc2OC)cc(OCC2CC2C(=O)O)c1 (stereo not drawn) [Compound 19BB]	0.038 nM	>148612	0.091 nM	0.078 nM	0.85 nM	6.8 nM	8800 nM	–	–	–	–
